{
  "source": "the supplement of paper PMC10307832",
  "assay_in_all_cases": "relative viability (nuclei count vs DMSO), 5 days (fraction); higher = more cells survive",
  "key": {"NCI-H2347": {"test_system": "NCI-H2347", "outline": "(§1)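 One day after seeding in 1536-well plates, lung cancer cell lines were dosed by pin tool. Dosing was either single-drug or a fixed anchor-drug dose plus five library-drug doses (not always all listed) in √10 steps. After 5 days, nuclei were stained in one fix-and-stain step and counted on 4× images, and relative viability is the nuclei count of treated wells over that of vehicle wells, given as the median of duplicate plates.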"}, "NCI-H1651": {"test_system": "NCI-H1651", "outline": "as §1"}, "HARA": {"test_system": "HARA", "outline": "as §1"}, "NCI-H838": {"test_system": "NCI-H838", "outline": "as §1"}, "LXF-289": {"test_system": "LXF-289", "outline": "as §1"}, "NCI-H1650": {"test_system": "NCI-H1650", "outline": "as §1"}, "201T": {"test_system": "201T", "outline": "as §1"}, "NCI-H2405": {"test_system": "NCI-H2405", "outline": "as §1"}, "LCLC-97TM1": {"test_system": "LCLC-97TM1", "outline": "as §1"}, "LOU-NH91": {"test_system": "LOU-NH91", "outline": "as §1"}, "LCLC-103H": {"test_system": "LCLC-103H", "outline": "as §1"}},
  "data": [
    {"molecule": "Cc1cn(-c2cc(NC(=O)c3ccc(C)c(Nc4nccc(-c5cccnc5)n4)c3)cc(C(F)(F)F)c2)cn1", "note": "[Nilotinib] + C[C@@H](Oc1cc(-c2cnn(C3CCNCC3)c2)cnc1N)c1c(Cl)ccc(F)c1Cl [Crizotinib] (partner 1 µM)", "values": [
      {"measurement": "relative viability", "setting": "NCI-H2347; first compound 0.03162 µM", "value": 0.629},
      {"measurement": "relative viability", "setting": "NCI-H2347; first compound 0.1 µM", "value": 0.853},
      {"measurement": "relative viability", "setting": "NCI-H1651; first compound 0.001 µM", "value": 0.853},
      {"measurement": "relative viability", "setting": "NCI-H1651; first compound 0.003162 µM", "value": 0.986},
      {"measurement": "relative viability", "setting": "NCI-H1651; first compound 0.01 µM", "value": 1},
      {"measurement": "relative viability", "setting": "NCI-H1651; first compound 0.03162 µM", "value": 0.838},
      {"measurement": "relative viability", "setting": "NCI-H1651; first compound 0.1 µM", "value": 0.816},
      {"measurement": "relative viability", "setting": "HARA; first compound 0.001 µM", "value": 1.09},
      {"measurement": "relative viability", "setting": "HARA; first compound 0.003162 µM", "value": 1.42},
      {"measurement": "relative viability", "setting": "HARA; first compound 0.01 µM", "value": 1.61},
      {"measurement": "relative viability", "setting": "HARA; first compound 0.03162 µM", "value": 0.886},
      {"measurement": "relative viability", "setting": "HARA; first compound 0.1 µM", "value": 1.05},
      {"measurement": "relative viability", "setting": "NCI-H838; first compound 0.001 µM", "value": 0.896},
      {"measurement": "relative viability", "setting": "NCI-H838; first compound 0.003162 µM", "value": 0.81},
      {"measurement": "relative viability", "setting": "NCI-H838; first compound 0.01 µM", "value": 1.03},
      {"measurement": "relative viability", "setting": "NCI-H838; first compound 0.03162 µM", "value": 0.673},
      {"measurement": "relative viability", "setting": "NCI-H838; first compound 0.1 µM", "value": 0.926},
      {"measurement": "relative viability", "setting": "LXF-289; first compound 0.001 µM", "value": 0.806},
      {"measurement": "relative viability", "setting": "LXF-289; first compound 0.003162 µM", "value": 0.885},
      {"measurement": "relative viability", "setting": "LXF-289; first compound 0.01 µM", "value": 0.923},
      {"measurement": "relative viability", "setting": "LXF-289; first compound 0.03162 µM", "value": 0.731},
      {"measurement": "relative viability", "setting": "LXF-289; first compound 0.1 µM", "value": 0.765},
      {"measurement": "relative viability", "setting": "NCI-H1650; first compound 0.001 µM", "value": 1.07},
      {"measurement": "relative viability", "setting": "NCI-H1650; first compound 0.003162 µM", "value": 1.1},
      {"measurement": "relative viability", "setting": "NCI-H1650; first compound 0.01 µM", "value": 0.998},
      {"measurement": "relative viability", "setting": "NCI-H1650; first compound 0.03162 µM", "value": 0.777},
      {"measurement": "relative viability", "setting": "NCI-H1650; first compound 0.1 µM", "value": 0.87},
      {"measurement": "relative viability", "setting": "201T; first compound 0.001 µM", "value": 1.01},
      {"measurement": "relative viability", "setting": "201T; first compound 0.003162 µM", "value": 1.07},
      {"measurement": "relative viability", "setting": "201T; first compound 0.01 µM", "value": 0.91},
      {"measurement": "relative viability", "setting": "201T; first compound 0.1 µM", "value": 1.07},
      {"measurement": "relative viability", "setting": "NCI-H2405; first compound 0.001 µM", "value": 0.854},
      {"measurement": "relative viability", "setting": "NCI-H2405; first compound 0.003162 µM", "value": 0.746},
      {"measurement": "relative viability", "setting": "NCI-H2405; first compound 0.01 µM", "value": 0.84},
      {"measurement": "relative viability", "setting": "NCI-H2405; first compound 0.03162 µM", "value": 0.747},
      {"measurement": "relative viability", "setting": "NCI-H2405; first compound 0.1 µM", "value": 0.857},
      {"measurement": "relative viability", "setting": "LCLC-97TM1; first compound 0.001 µM", "value": 0.246},
      {"measurement": "relative viability", "setting": "LCLC-97TM1; first compound 0.003162 µM", "value": 0.328},
      {"measurement": "relative viability", "setting": "LCLC-97TM1; first compound 0.01 µM", "value": 0.712},
      {"measurement": "relative viability", "setting": "LCLC-97TM1; first compound 0.03162 µM", "value": 0.311},
      {"measurement": "relative viability", "setting": "LCLC-97TM1; first compound 0.1 µM", "value": 0.469},
      {"measurement": "relative viability", "setting": "LOU-NH91; first compound 0.001 µM", "value": 0.763},
      {"measurement": "relative viability", "setting": "LOU-NH91; first compound 0.003162 µM", "value": 0.722},
      {"measurement": "relative viability", "setting": "LOU-NH91; first compound 0.01 µM", "value": 0.76},
      {"measurement": "relative viability", "setting": "LOU-NH91; first compound 0.03162 µM", "value": 0.722},
      {"measurement": "relative viability", "setting": "LOU-NH91; first compound 0.1 µM", "value": 0.768},
      {"measurement": "relative viability", "setting": "LCLC-103H; first compound 0.003162 µM", "value": 1.07},
      {"measurement": "relative viability", "setting": "LCLC-103H; first compound 0.03162 µM", "value": 0.945},
      {"measurement": "relative viability", "setting": "LCLC-103H; first compound 0.1 µM", "value": 1.08}
    ]}
  ]
}
